25 compounds from patent US20250129078A1, “ERBB2 INHIBITORS” (Cogent Biosciences, Inc., priority 2023, published 2025) can be followed below.

For the assay, the target named is EGFR WT (Homo sapiens (Human), UniProt P00533). In words: ErbB enzyme assay (CisBio HTRF-KinEASE-TK), EGFR WT. It counts as biochemical. Conditions: ATP at Km (25 μM), 1 h incubation. The method, then:
In vitro enzyme assays based on CisBio HTRF-KinEASE-TK technology were used to determine compound potencies. […]. Compounds were prepared as a three-fold serial dilution in DMSO and added to the assay to give the appropriate final concentration. After a 1 h incubation at ambient temperature, the reaction was quenched by adding 10 μL of 62.5 nM Sa-XL665 and 0.25×TK-Ab-Cryptate in HTRF detection buffer (all from CisBio, part of cat #62TKOPEC). After another 1 h incubation at ambient temperature, the extent of substrate phosphorylation was determined using a PerkinElmer EnVision multimode plate reader via time-resolved fluorescence dual wavelength detection. The percent of control (POC) was calculated using the ratio of emission at […] to the emission at 620 nm. One hundred POC was determined using DMSO only controls (no test compounds present) and zero POC was determined using pre-quenched controls reactions. A 4-parameter logistic equation was fit to the POC values as a function of the test compound concentration and the IC50 value was determined as the point where the curve crossed 50 POC.
Background: Time-resolved FRET reads energy transfer from a long-lived donor to a nearby acceptor.

EGFR WT, sequence (P00533 25-1210): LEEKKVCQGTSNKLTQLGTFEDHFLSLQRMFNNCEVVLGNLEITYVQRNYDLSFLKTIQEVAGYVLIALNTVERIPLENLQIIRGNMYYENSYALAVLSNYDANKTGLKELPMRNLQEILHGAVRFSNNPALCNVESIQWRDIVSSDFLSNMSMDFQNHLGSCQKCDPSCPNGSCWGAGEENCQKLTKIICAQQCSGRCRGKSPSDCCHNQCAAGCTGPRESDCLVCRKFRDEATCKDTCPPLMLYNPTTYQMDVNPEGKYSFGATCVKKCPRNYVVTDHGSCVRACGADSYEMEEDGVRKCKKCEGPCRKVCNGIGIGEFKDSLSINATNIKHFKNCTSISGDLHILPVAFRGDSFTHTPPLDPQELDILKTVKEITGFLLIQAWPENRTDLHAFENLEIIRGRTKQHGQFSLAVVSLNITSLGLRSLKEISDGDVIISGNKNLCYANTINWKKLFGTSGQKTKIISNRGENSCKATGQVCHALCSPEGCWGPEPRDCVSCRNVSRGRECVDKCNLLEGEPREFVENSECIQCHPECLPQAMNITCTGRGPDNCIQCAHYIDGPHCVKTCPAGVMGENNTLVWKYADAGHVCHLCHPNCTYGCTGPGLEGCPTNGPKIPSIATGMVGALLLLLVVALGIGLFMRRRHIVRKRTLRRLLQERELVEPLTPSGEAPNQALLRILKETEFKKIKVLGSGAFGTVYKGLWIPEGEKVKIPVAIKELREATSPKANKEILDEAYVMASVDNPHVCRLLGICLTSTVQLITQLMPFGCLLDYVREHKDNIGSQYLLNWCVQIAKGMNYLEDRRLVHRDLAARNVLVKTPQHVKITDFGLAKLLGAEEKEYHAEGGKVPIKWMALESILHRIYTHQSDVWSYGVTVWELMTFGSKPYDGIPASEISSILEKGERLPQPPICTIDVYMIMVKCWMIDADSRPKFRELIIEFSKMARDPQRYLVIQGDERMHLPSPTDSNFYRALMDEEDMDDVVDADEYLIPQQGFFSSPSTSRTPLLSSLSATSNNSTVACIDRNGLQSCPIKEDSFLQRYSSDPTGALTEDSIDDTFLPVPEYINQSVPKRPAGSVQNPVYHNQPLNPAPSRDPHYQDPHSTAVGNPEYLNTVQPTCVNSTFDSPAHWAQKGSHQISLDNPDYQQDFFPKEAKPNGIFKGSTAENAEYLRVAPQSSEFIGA

What is called IC50 is the concentration that inhibits the measured activity by half. Lower therefore signals greater potency. `Cc1cc(Nc2ncnc3cnc(N4CCN(C(=O)/C=C/C(F)(F)F)CC4)nc23)ccc1Oc1ccc2c(c1)nnn2C` [Compound 217, 4,4,4-trifluoro-1-(4-(8-((3-methyl-4-((1-methyl-1H-benzo[d][1,2,3]triazol-5-yl)oxy)phenyl)amino)pyrimido [5,4-d]pyrimidin-2-yl)piperazin-1-yl) but-2-en-1-one] registered a concentration for half-maximal inhibition (IC50) of under 50 nM.

Consider `C=CC(=O)N1CCN(c2ncc3ncnc(Nc4ccc(Oc5cc(OC)c6c(c5)nnn6C)c(C)c4)c3n2)CC1` [Compound 113, 1-(4-(8-((4-((7-methoxy-1-methyl-1H-benzo[d][1,2,3]triazol-5-yl)oxy)-3-methylphenyl)amino)pyrimido[5,4-d]pyrimidin-2-yl)piperazin-1-yl)prop-2-en-1-one], for which the IC50 is under 50 nM.

Compound `C=CC(=O)N1CCN(c2ccc3ncnc(Nc4ccc(Oc5ccc6c(c5)nnn6C)c(C)c4)c3n2)CC1(C)C` [Compound 89, 1-(2,2-dimethyl-4-(4-((3-methyl-4-((1-methyl-1H-benzo[d][1,2,3]triazol-5-yl)oxy)phenyl)amino)pyrido[3,2-d]pyrimidin-6-yl)piperazin-1-yl)prop-2-en-1-one] registered an IC50 of 50 to 100 nM.

With `C=CC(=O)N1C[C@@H](N(C)c2ccc3ncnc(Nc4ccc(Oc5ccc6c(c5)nnn6C)c(C)c4F)c3n2)CC[C@H]1C` [Compound 352, 1-((2R,5S)-5-((4-((2-fluoro-3-methyl-4-((1-methyl-1H-benzo[d][1,2,3]triazol-5-yl)oxy)phenyl)amino)pyrido[3,2-d]pyrimidin-6-yl)(methyl)amino)-2-methylpiperidin-1-yl)prop-2-en-1-one], the IC50 is 100 to 500 nM.

In the case of `C=CC(=O)N[C@]1(C)CCN(c2ncc3ncnc(Nc4ccc(Oc5ccc6c(c5)nnn6C)c(C)c4F)c3n2)C1` [Compound 161, (R)-N-(1-(8-((2-fluoro-3-methyl-4-((1-methyl-1H-benzo[d][1,2,3]triazol-5-yl)oxy)phenyl)amino)pyrimido[5,4-d]pyrimidin-2-yl)-3-methylpyrrolidin-3-yl)acrylamide], the half-inhibitory concentration (IC50) was under 50 nM.

Regarding `C=CC(=O)N[C@]1(C)CCCN(c2ccc3ncnc(Nc4ccc(Oc5ccc6c(c5)nnn6C)c(C)c4F)c3n2)C1` [Compound 303, (R)-N-(1-(4-((2-fluoro-3-methyl-4-((1-methyl-1H-benzo[d][1,2,3]triazol-5-yl)oxy)phenyl)amino)pyrido[3,2-d]pyrimidin-6-yl)-3-methylpiperidin-3-yl)acrylamide], the IC50 was under 50 nM.

Consider `C=CC(=O)N1CCN(c2ncc3ncnc(Nc4ccc(Oc5ccc6c(c5)ncn6C(F)F)c(C)c4)c3n2)CC1` [Compound 30, 1-(4-(8-((4-((1-(difluoromethyl)-1H-benzo[d]imidazol-5-yl)oxy)-3-methylphenyl)amino)pyrimido[5,4-d]pyrimidin-2-y1)piperazin-1-yl)prop-2-en-1-one], for which the IC50 was in the range of 50 to 100 nM.

Compound `C=CC(=O)N[C@H]1[C@@H]2C[C@H]1CN(c1ncc3ncnc(Nc4ccc(Oc5ccc6c(c5)nnn6C)c(C)c4)c3n1)C2` [Compound 207, N-((1R,5S,6r)-3-(8-((3-methyl-4-((1-methyl-1H-benzo[d][1,2,3]triazol-5-yl)oxy)phenyl)amino)pyrimido[5,4-d]pyrimidin-2-yl)-3-azabicyclo[3.1.1]heptan-6-yl)acrylamide] came in with an IC50 of 100 to 500 nM.

The compound `C=CC(=O)N[C@H]1CN(c2ccc3ncnc(Nc4ccc(Oc5ccc6c(c5)nnn6C)c(C)c4F)c3n2)CC[C@@H]1C` (single isomer, unassigned) [Compound 346] gave an IC50 of 100 to 500 nM.

In turn, `C=C(F)C(=O)N1CCN(c2ncc3ncnc(Nc4ccc(Oc5ccc6c(c5)nnn6C)c(C)c4)c3n2)C[C@H]1CF` (single isomer, unassigned) [Compound 219] had a 50% inhibitory concentration (IC50) of at least 1000 nM.

`C=CC(=O)N[C@H]1C[C@H](C)CN(c2ccc3ncnc(Nc4ccc(Oc5ccc6c(c5)nnn6C)c(C)c4F)c3n2)C1` (single isomer, unassigned) [Compound 339] came in with a half-maximal inhibitory concentration (IC50) of 100 to 500 nM.

For `C=CC(=O)N1CCN(c2ncc3ncnc(Nc4ccc(Oc5cc(C)c6c(c5)nnn6C)c(C)c4)c3n2)CC1` [Compound 130, 1-(4-(8-((4-((1,7-dimethyl-1H-benzo[d][1,2,3]triazol-5-yl)oxy)-3-methylphenyl)amino)pyrimido[5,4-d]pyrimidin-2-yl)piperazin-1-yl)prop-2-en-1-one], the IC50 is under 50 nM.

The compound `C=CC(=O)N1CCN(c2ncc3ncnc(Nc4ccc(Oc5ccc6c(c5)nnn6C)c(C)c4F)c3n2)CC12CC2` [Compound 8, 1-(7-(8-((2-fluoro-3-methyl-4-((1-methyl-1H-benzo[d][1,2,3]triazol-5-yl)oxy)phenyl)amino)pyrimido [5,4-d]pyrimidin-2-yl)-4,7-diazaspiro[2.5]octan-4-yl)prop-2-en-1-one] yielded an IC50 of under 50 nM.

Take `C=CC(=O)N[C@@H]1C[C@@H](C)CN(c2ncc3ncnc(Nc4ccc(Oc5ccc6c(c5)nnn6C)c(C)c4F)c3n2)C1` (single isomer, unassigned) [Compound 201]: the half-maximal inhibitory concentration (IC50) is at least 1000 nM.

With `C=CC(=O)N1CCC(Oc2ncc3ncnc(Nc4ccc(Oc5ccn6ncnc6c5)c(C)c4)c3n2)CC1` [Compound 376, 1-(4-((8-((4-([1,2,4]triazolo[1,5-a]pyridin-7-yloxy)-3-methylphenyl)amino)pyrimido[5,4-d]pyrimidin-2-yl)oxy)piperidin-1-yl)prop-2-en-1-one], the IC50 is 100 to 500 nM.

`C=CC(=O)N[C@H]1C[C@@H](C)CN(c2ccc3ncnc(Nc4ccc(Oc5ccc6c(c5)nnn6C)c(C)c4F)c3n2)C1` (single isomer, unassigned) [Compound 337] yielded an IC50 of 100 to 500 nM.

`Cc1cc(Nc2ncnc3cnc(N4CCN(C(=O)/C=C/Cn5cccn5)CC4)nc23)ccc1Oc1ccc2c(c1)nnn2C` [Compound 233, (E)-1-(4-(8-((3-methyl-4-((1-methyl-1H-benzo[d][1,2,3]triazol-5-yl)oxy)phenyl)amino)pyrimido[5,4-d]pyrimidin-2-yl)piperazin-1-yl)-4-(1H-pyrazol-1-yl)but-2-en-1-one] had an IC50 of at least 1000 nM.

`C=CC(=O)N1CCN(c2ncc3ncnc(Nc4ccc(Oc5ccc6c(c5)nnn6C)c(C)c4)c3n2)C[C@@H]1C(C)C` [Compound 122, (S)-1-(2-isopropyl-4-(8-((3-methyl-4-((1-methyl-1H-benzo[d][1,2,3]triazol-5-yl)oxy)phenyl)amino)pyrimido[5,4-d]pyrimidin-2-yl)piperazin-1-y1)prop-2-en-1-one] yielded a half-maximal inhibitory concentration (IC50) of at least 1000 nM.

The compound `C=CC(=O)N[C@H]1CCCN(c2ncc3ncnc(Nc4ccc(Oc5ccc6c(c5)nnn6C)c(C)c4F)c3n2)CC1` [Compound 168, (S)-N-(1-(8-((2-fluoro-3-methyl-4-((1-methyl-1H-benzo[d][1,2,3]triazol-5-yl)oxy)phenyl)amino)pyrimido[5,4-d]pyrimidin-2-yl)azepan-4-yl)acrylamide] came in with an IC50 of 500 to 1000 nM.

Consider `C=CC(=O)N1CCN(c2ncc3ncnc(Nc4ccc(Oc5cc(F)c6c(c5)ncn6C)c(C)c4)c3n2)C[C@H]1C` [Compound 159, (R)-1-(4-(8-((4-((7-fluoro-1-methyl-1H-benzo[d]imidazol-5-yl)oxy)-3-methylphenyl)amino)pyrimido[5,4-d]pyrimidin-2-yl)-2-methylpiperazin-1-yl)prop-2-en-1-one], for which the half-maximal inhibitory concentration (IC50) is 50 to 100 nM.

`C=CC(=O)N1CCN(c2ncc3ncnc(Nc4ccc(Oc5cc6nnn(C)c6cc5C)c(C)c4)c3n2)CC1` [Compound 136, 1-(4-(8-((4-((1,6-dimethyl-1H-benzo[d][1,2,3]triazol-5-y1)oxy)-3-methylphenyl)amino)pyrimido[5,4-d]pyrimidin-2-yl)piperazin-1-yl)prop-2-en-1-one] yielded a half-maximal inhibitory concentration (IC50) of 100 to 500 nM.

Take `C=CC(=O)N1CCCN(c2ncc3ncnc(Nc4ccc(Oc5ccc6c(c5)nnn6C)c(C)c4)c3n2)C[C@H]1C` [Compound 227, (R)-1-(2-methyl-4-(8-((3-methyl-4-((1-methyl-1H-benzo[d][1,2,3]triazol-5-yl)oxy)phenyl)amino)pyrimido[5,4-d]pyrimidin-2-yl)-1,4-diazepan-1-yl)prop-2-en-1-one]: the IC50 was at least 1000 nM.

For `C=CC(=O)N[C@H]1CN(c2ccc3ncnc(Nc4ccc(Oc5ccc6c(c5)nnn6C)c(C)c4)c3n2)C[C@@H]1F` [Compound 276, N-((3S,4S)-4-fluoro-1-(4-((3-methyl-4-((1-methyl-1H-benzo[d][1,2,3]triazol-5-yl)oxy)phenyl)amino)pyrido[3,2-d]pyrimidin-6-yl)pyrrolidin-3-yl)acrylamide], the IC50 fell in the range of 100 to 500 nM.

With `C=C(F)C(=O)N1CC2CCC1CN2c1ccc2ncnc(Nc3ccc(Oc4ccc5c(c4)nnn5C)c(C)c3)c2n1` (stereo not shown) [Compound 88, 2-fluoro-1-(5-(4-((3-methyl-4-((1-methyl-1H-benzo[d][1,2,3]triazol-5-yl)oxy)phenyl)amino)pyrido[3,2-d]pyrimidin-6-yl)-2,5-diazabicyclo[2.2.2]octan-2-yl)prop-2-en-1-one], the IC50 is at least 1000 nM.

On to `C=CC(=O)N1CCN(c2ncc3ncnc(Nc4ccc(Oc5cc(F)c6c(c5)ncn6C)c(C)c4F)c3n2)CC1` [Compound 111, 1-(4-(8-((2-fluoro-4-((7-fluoro-1-methyl-1H-benzo[d]imidazol-5-yl)oxy)-3-methylphenyl)amino)pyrimido[5,4-d]pyrimidin-2-yl)piperazin-1-y1)prop-2-en-1-one], for which the 50% inhibitory concentration (IC50) is under 50 nM.
